Experimental findings from US9085555B2, “Complement pathway modulators and uses thereof” (priority 2011, dated 2015) are described below.

SMILES strings stand for the structures. pIC50: −log10 of the molar value.

The target in the experiment is Factor D (Homo sapiens (Human), UniProt P00746). The experiment can be described thus: biochemical. The experiment is classed as biochemical. Particulars: read-out: IC50.
Sequence of Factor D (P00746 26-253): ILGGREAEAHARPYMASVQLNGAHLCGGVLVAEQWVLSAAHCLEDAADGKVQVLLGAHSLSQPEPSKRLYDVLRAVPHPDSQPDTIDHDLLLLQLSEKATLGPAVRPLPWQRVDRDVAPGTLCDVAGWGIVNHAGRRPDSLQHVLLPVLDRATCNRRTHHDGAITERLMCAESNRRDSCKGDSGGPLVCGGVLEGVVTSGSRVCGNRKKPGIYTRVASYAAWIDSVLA
Take `NC[C@@]1(F)C[C@@H](C(=O)NCc2cccc(Cl)c2F)N(C(=O)Cc2cn(C(N)=O)c3ccccc23)C1` [Example 470, 3-{2-[(2S,4S)-4-Aminomethyl-2-(3-chloro-2-fluoro-benzylcarbamoyl)-4-fluoro-pyrrolidin-1-yl]-2-oxo-ethyl}-indole-1-carboxylic acid amide]: the negative logarithm of the IC50 (pIC50) is 6.60. On to `COc1ccc2c(C(C)=O)cn(CC(=O)N3C[C@H](F)[C@@H](OC)[C@H]3C(=O)NCc3cccc(Cl)c3F)c2c1` [Example 487, (2S,3S,4S)-1-[2-(3-Acetyl-6-methoxy-indol-1-yl)-acetyl]-4-fluoro-3-methoxy-pyrrolidine-2-carboxylic acid 3-chloro-2-fluoro-benzylamide], for which the pIC50 is 7.89. Then `NC(=O)n1cc(CC(=O)N2[C@@H]3C[C@@H]3C[C@H]2C(=O)NCc2cccc(Cl)c2F)c2ccccc21` [Example 446, 3-{2-[(1R,3S,5R)-3-(3-Chloro-2-fluoro-benzylcarbamoyl)-2-aza-bicyclo[3.1.0]hex-2-yl]-2-oxo-ethyl}-indole-1-carboxylic acid amide], with 7.80; and `NC(=O)n1cc(NC(=O)N2C3CC3C[C@H]2C(=O)NCc2cccc(C(F)(F)F)c2F)c2ccccc21` (stereo partly drawn) [Example 261, (1R,3S,5R)-2-Aza-bicyclo[3.1.0]hexane-2,3-dicarboxylic acid 2-[(1-carbamoyl-1H-indol-3-yl)-amide] 3-(2-fluoro-3-trifluoromethyl-benzylamide)], with 7.12; and `CO[C@H]1C[C@@H](C(=O)Nc2cccc(OC(F)(F)F)c2)N(C(=O)Nc2cn(C(N)=O)c3ccccc23)C1` [Example 128, (2S,4S)-4-Methoxy-pyrrolidine-1,2-dicarboxylic acid 1-[(1-carbamoyl-1H-indol-3-yl)-amide] 2-[(3-trifluoromethoxy-phenyl)-amide]], with 5.70.

`COC[C@@]12C[C@@H](C(=O)NCc3cccc(Cl)c3F)N(C(=O)Nc3cn(C(N)=O)c4ccccc34)[C@@H]1C2` [Example 184, (1R,3S,5S)-5-Methoxymethyl-2-aza-bicyclo[3.1.0]hexane-2,3-dicarboxylic acid 2-[(1-carbamoyl-1H-indol-3-yl)-amide] 3-(3-chloro-2-fluoro-benzylamide)]: the pIC50 is 8.05. Regarding `NC(=O)n1cc(NC(=O)N2CC[C@@H]3C[C@@]32C(=O)NCc2cccc(Cl)c2F)c2ccccc21` [Example 149, (1S,5R)-2-Aza-bicyclo[3.1.0]hexane-1,2-dicarboxylic acid 2-[(1-carbamoyl-1H-indol-3-yl)-amide] 1-(3-chloro-2-fluoro-benzylamide)], the pIC50 was 4.97. As to `CO[C@H]1[C@@H](C(=O)N[C@H](C)c2cccc(Cl)c2F)N(C(=O)Cn2cc(C(C)=O)c3ccccc32)C[C@@H]1F` [Example 570, (2S,3S,4S)-1-[2-(3-Acetyl-indol-1-yl)-acetyl]-4-fluoro-3-methoxy-pyrrolidine-2-carboxylic acid [(R)-1-(3-chloro-2-fluoro-phenyl)-ethyl]-amide], the negative logarithm of the IC50 (pIC50) is 7.57.

With `NC(=O)c1nn(CC(=O)N2[C@@H]3C[C@@H]3C[C@H]2C(=O)NCc2cccc(Cl)c2F)c2ncccc12` [Example 654, 1-{2-[(1R,3S,5R)-3-(3-Chloro-2-fluoro-benzylcarbamoyl)-2-aza-bicyclo[3.1.0]hex-2-yl]-2-oxo-ethyl}-1H-pyrazolo[3,4-b]pyridine-3-carboxylic acid amide], the negative-log IC50 (pIC50) was 7.74. Consider `NC(=O)n1cc(NC(=O)N2C[C@@H](N)C[C@H]2C(=O)NCC(O)c2ccccc2)c2ccccc21` (stereo partly drawn) [Example 82, (2S,4S)-4-Amino-pyrrolidine-1,2-dicarboxylic acid 1-[(1-carbamoyl-1H-indol-3-yl)-amide] 2-[(2-hydroxy-2-phenyl-ethyl)-amide]], for which the pIC50 is 4.61.

As to `CO[C@H]1[C@@H](C(=O)Nc2cccc(OC(F)(F)F)c2F)N(C(=O)Cn2nc(C(C)=O)c3cc(OCc4ncccn4)ccc32)C[C@@H]1F` [Example 638, (2S,3S,4S)-1-{2-[3-Acetyl-5-(pyrimidin-2-ylmethoxy)-indazol-1-yl]-acetyl}-4-fluoro-3-methoxy-pyrrolidine-2-carboxylic acid (2-fluoro-3-trifluoromethoxy-phenyl)-amide], the negative logarithm of the IC50 (pIC50) was 8.30.

Regarding `NC(=O)n1cc(NC(=O)N2C[C@@H](N)C[C@H]2C(=O)NC2CCc3ccc(Cl)cc32)c2ccccc21` (stereo partly drawn) [Example 79, (2S,4S)-4-Amino-pyrrolidine-1,2-dicarboxylic acid 1-[(1-carbamoyl-1H-indol-3-yl)-amide] 2-[(6-chloro-indan-1-yl)-amide]], the pIC50 is 5.22.

With `COc1ccc(CNC(=O)[C@@H]2SCCN2C(=O)Nc2cn(C(N)=O)c3ccccc23)c(F)c1F` [Example 225, (S)-Thiazolidine-2,3-dicarboxylic acid 3-[(1-carbamoyl-1H-indol-3-yl)-amide] 2-(2,3-difluoro-4-methoxy-benzylamide)], the negative-log IC50 (pIC50) is 6.46.

As to `CC(=O)c1cn(CC(=O)N2C[C@H](F)C[C@H]2C(=O)NCc2cccc(Cl)c2F)c2ccc(OCc3ccccn3)cc12` [Example 589, (2S,4R)-1-{2-[3-Acetyl-5-(pyridin-2-ylmethoxy)-indol-1-yl]-acetyl}-4-fluoro-pyrrolidine-2-carboxylic acid 3-chloro-2-fluoro-benzylamide], the pIC50 was 6.63. As for `CC(=O)c1cn(CC(=O)N2[C@@H]3C[C@@H]3C[C@H]2C(=O)NCc2cc(C(=O)O)cc(Cl)c2F)c2ccccc12` [Example 606, 3-[({(1R,3S,5R)-2-[2-(3-Acetyl-indol-1-yl)-acetyl]-2-aza-bicyclo[3.1.0]hexane-3-carbonyl}-amino)-methyl]-5-chloro-4-fluoro-benzoic acid], the negative-log IC50 (pIC50) is 7.85. In the case of `CO[C@H]1[C@@H](C(=O)N[C@H](C)c2cccc(Cl)c2F)N(C(=O)Cn2nc(C(N)=O)c3ccncc32)C[C@@H]1F` [Example 664, 1-(2-{(2S,3S,4S)-2-[(R)-1-(3-Chloro-2-fluoro-phenyl)-ethylcarbamoyl]-4-fluoro-3-methoxy-pyrrolidin-1-yl}-2-oxo-ethyl)-1H-pyrazolo[3,4-c]pyridine-3-carboxylic acid amide], the pIC50 is 7.62. As for `CC(=O)n1cc(NC(=O)N2[C@@H]3C[C@@H]3C[C@H]2C(=O)N[C@H](CN(C)C)c2cccc(Cl)c2F)c2ccccc21` [Example 281, (1R,3S,5R)-2-Aza-bicyclo[3.1.0]hexane-2,3-dicarboxylic acid 2-[(1-acetyl-1H-indol-3-yl)-amide] 3-{[(S)-1-(3-chloro-2-fluoro-phenyl)-2-dimethylamino-ethyl]-amide}], the negative logarithm of the IC50 (pIC50) is 7.74.

Regarding `C=CCOc1ccc2c(NC(=O)N3C[C@H](F)C[C@H]3C(=O)NCc3cccc(Cl)c3F)cn(C(N)=O)c2c1` [Example 280, (2S,4R)-4-Fluoro-pyrrolidine-1,2-dicarboxylic acid 1-[(6-allyloxy-1-carbamoyl-1H-indol-3-yl)-amide] 2-(3-chloro-2-fluoro-benzylamide)], the negative logarithm of the IC50 (pIC50) was 6.60. On to `NC(=O)n1cc(NC(=O)N2N=CC[C@H]2C(=O)NCc2cccc(Cl)c2F)c2ccccc21` (single isomer, unassigned) [Example 362, S^§)-4,5-Dihydro-pyrazole-1,5-dicarboxylic acid 1-[(1-carbamoyl-1H-indol-3-yl)-amide]5-(3-chloro-2-fluoro-benzylamide], for which the pIC50 is 8.30. `NC(=O)n1cc(NC(=O)N2C[C@@H](N)C[C@H]2C(=O)NCc2ccccc2Cl)c2ccccc21` [Example 50, (2S,4S)-4-Amino-pyrrolidine-1,2-dicarboxylic acid 1-[(1-carbamoyl-1H-indol-3-yl)-amide] 2-(2-chloro-benzylamide)]: the pIC50 was 4.67. Turning to `NC(=O)c1cn(CC(=O)N2C[C@H](F)C[C@H]2C(=O)NCc2cccc(Cl)c2F)c2cc(F)c(F)cc12` [Example 492, 1-{2-[(2S,4R)-2-(3-Chloro-2-fluoro-benzylcarbamoyl)-4-fluoro-pyrrolidin-1-yl]-2-oxo-ethyl}-5,6-difluoro-1H-indole-3-carboxylic acid amide], the negative-log IC50 (pIC50) was 6.63.

`Cc1cc2c(cn1)c(C(N)=O)nn2CC(=O)N1[C@@H]2C[C@@H]2C[C@H]1C(=O)Nc1cccc(OC(F)(F)F)c1F` [Example 713, 1-{2-[(1R,3S,5R)-3-(2-Fluoro-3-trifluoromethoxy-phenylcarbamoyl)-2-aza-bicyclo[3.1.0]hex-2-yl]-2-oxo-ethyl}-6-methyl-1H-pyrazolo[4,3-c]pyridine-3-carboxylic acid amide]: the negative-log IC50 (pIC50) was 6.59. For the compound `CCC[C@H](NC(=O)[C@@H]1C[C@H](N)CN1C(=O)Nc1cn(C(N)=O)c2ccccc12)C(=O)OC` [Example 93, (S)-2-{[(2S,4S)-4-Amino-1-(1-carbamoyl-1H-indol-3-ylcarbamoyl)-pyrrolidine-2-carbonyl]-amino}-pentanoic acid methyl ester], the negative-log IC50 (pIC50) is 5.40. On to `N#C[C@H]1C[C@@H](C(=O)Nc2cccc(OC(F)(F)F)c2F)N(C(=O)Nc2cn(C(N)=O)c3ccccc23)C1` [Example 188, (2S,4S)-4-cyano-pyrrolidine-1,2-dicarboxylic acid 1-[(1-carbamoyl-1H-indol-3-yl)-amide]2-[(2-fluoro-3-trifluoromethoxy-phenyl)-amide]], for which the pIC50 is 5.97. Then `NC(=O)n1cc(NC(=O)N2C[C@H]3C[C@H]3[C@H]2C(=O)N[C@H](CO)c2cccc(Cl)c2F)c2ccccc21` [Example 212, (1R,2S,5S)-3-Azabicyclo[3.1.0]hexane-2,3-dicarboxylic acid 3-[(1-carbamoyl-1H-indol-3-yl)-amide] 2-{[(S)-1-(3-chloro-2-fluoro-phenyl)-2-hydroxy-ethyl]-amide}], with 8.00. As to `NC(=O)c1nn(CC(=O)N2[C@@H]3C[C@@H]3C[C@H]2C(=O)Nc2cccc(-c3ccccc3F)c2F)c2cnccc12` [Example 684, 1-{2-[(1R,3S,5R)-3-(2,2′-Difluoro-biphenyl-3-ylcarbamoyl)-2-aza-bicyclo[3.1.0]hex-2-yl]-2-oxo-ethyl}-1H-pyrazolo[3,4-c] pyridine-3-carboxylic acid amide], the negative logarithm of the IC50 (pIC50) was 7.57.
